Results: US6849612B2, “Oligonucleotide modulation of cell adhesion” (ISIS Pharmaceuticals, Inc., priority 1993, dated 2005)
Strand notation (5' to 3'): a small letter for the sugar, then the base; units joined by * are phosphorothioate-linked, units joined directly phosphodiester-linked; [ ] holds rarer units or linkages, { } end groups; capitals alone tell only the bases. d = 2'-deoxy (DNA)

Tests used:
ELAM-1 = assay: ELISA of ELAM-1 expression in TNF-stimulated HUVEC; type: cell-based, human; conditions: for ELAM-1 expression (% of control) / IC50: HUVEC; for ELAM-1 expression (% of control): TNF-α […] 4 hours; for IC50: TNF-α, read-out: IC50 for inhibition of ELAM-1 expression (asterisk); for inhibition of ELAM-1 expression: TNF-treated HUVEC
Protocol: (§1) Primary human umbilical vein endothelial (HUVEC) cells, passage 2 to 5, were plated in 96-well plates and allowed to reach confluence. Cells were washed three times with Opti-MEM (GIBCO, Grand Island N.Y.). Cells were treated with increasing concentrations of oligonucleotide diluted in Opti-MEM containing 10 μg/ml DOTMA solution (Bethesda Research Labs, Bethesda, Md.) for 4 hours at 370C. The medium was removed and replaced with EGM-UV (Clonetics, San Diego Calif.) plus oligonucleotide. Tumor necrosis factor α was added to the medium (2.5 ng/ml) and the cells were incubated an additional 4 hours at 37° C.
(§2) ELAM-1 expression was determined by ELISA. Cells were gently washed three times with Dulbecco's phosphate-buffered saline (D-PBS) prewarmed to 37° C. Cells were fixed with 95% ethanol at 4° C. for 20 minutes, washed three times with D-PBS and blocked with 2% BSA in D-PBS. Cells were incubated with ELAM-1 monoclonal antibody BBA-1 (R&D Systems, Minneapolis Minn.) diluted to 0.5 μg/ml in D-PBS containing 2% BSA for 1 hour at 37° C. Cells were washed three times with D-PBS and the bound ELAM-1 antibody detected with biotinylated goat anti-mouse secondary antibody followed by β-galactosidase-conjugated streptavidin as described in Example 1.
ELISA screening of additional antisense oligonucleotides for activity against ELAM-1 gene expression Inhibition of ELAM-1 expression by eighteen antisense phosphorothioate oligonucleotides was determined using the ELISA assay as described in Example 12.

VCAM-1 = assay: ELISA of VCAM-1 expression in TNF-stimulated HUVEC; type: cell-based, human; conditions: for VCAM-1 EXPRESSION 30 nM oligo (VCAM-1 expression is given as % of control) / VCAM-1 EXPRESSION 50 nM oligo (VCAM-1 expression is given as % of control): TNF-α 16 hours
Protocol: as §1, §2
Inhibition of VCAM-1 expression by fifteen antisense phosphorothioate oligonucleotides was determined using the ELISA assay approximately as described in Example 12, except that cells were stimulated with TNF-àfor 16 hours and VCAM-1 expression was detected by a VCAM-1 specific monoclonal antibody (R & D Systems, Minneapolis, Minn.) used at 0.5 μg/ml.

| Substance | ELAM-1 expression (% of control) (ELAM-1; 30 nM oligo) | ELAM-1 expression (% of control) (ELAM-1; 50 nM oligo) | IC50 (ELAM-1) [µM] | inhibition of ELAM-1 expression (ELAM-1) | VCAM-1 EXPRESSION 30 nM oligo (VCAM-1 expression is given as % of control) (VCAM-1) | VCAM-1 EXPRESSION 50 nM oligo (VCAM-1 expression is given as % of control) (VCAM-1) | IC50 (VCAM-1; TNF-α, read-out: IC50 for inhibition of VCAM-1 expression (asterisk)) [µM] |
| --- | --- | --- | --- | --- | --- | --- | --- |
| ISIS 2670: P=S, human ELAM-1 3′-UTR 3717-3736, SEQ ID NO 29, ACCACACTGGTATTTCACAC (antisense dA*dC*dC*dA*dC*dA*dC*dT*dG*dG*dT*dA*dT*dT*dT*dC*dA*dC*dA*dC) | 72.2 % of control | 67.2 % of control |  |  |  |  |  |
| ISIS 2673: P=S, human ELAM-1 3′-UTR 2656-2676, SEQ ID NO 30, GTATGGAAGATTATAATATAT (antisense dG*dT*dA*dT*dG*dG*dA*dA*dG*dA*dT*dT*dA*dT*dA*dA*dT*dA*dT*dA*dT) | 58.9 % of control | 53.8 % of control |  |  |  |  |  |
| ISIS 2674: P=S, human ELAM-1 3′-UTR 2617-2637, SEQ ID NO 31, CACAATCCTTAAGAACTCTTT (antisense dC*dA*dC*dA*dA*dT*dC*dC*dT*dT*dA*dA*dG*dA*dA*dC*dT*dC*dT*dT*dT) | 33.5 % of control | 28.1 % of control | ≤ 0.05 |  |  |  |  |
| ISIS 2678: P=S, human ELAM-1 3′-UTR 3557-3576, SEQ ID NO 32, ACCTCTGCTGTTCTGATCCT (antisense dA*dC*dC*dT*dC*dT*dG*dC*dT*dG*dT*dT*dC*dT*dG*dA*dT*dC*dC*dT) | 24.9 % of control | 15.3 % of control | ≤ 0.05 |  |  |  |  |
| ISIS 2679: P=S, human ELAM-1 5′-UTR 40-59, SEQ ID NO 33, CTGCTGCCTCTGTCTCAGGT (antisense dC*dT*dG*dC*dT*dG*dC*dC*dT*dC*dT*dG*dT*dC*dT*dC*dA*dG*dG*dT) | 6.4 % of control | 6.0 % of control | ≤ 0.05 | most potent |  |  |  |
| ISIS 2683: P=S, human ELAM-1 AUG 143-163, SEQ ID NO 35, AATCATGACTTCAAGAGTTCT (antisense dA*dA*dT*dC*dA*dT*dG*dA*dC*dT*dT*dC*dA*dA*dG*dA*dG*dT*dT*dC*dT) | 47.9 % of control | 48.5 % of control | ≤ 0.05 |  |  |  |  |
| ISIS 2686: P=S, human ELAM-1 AUG 148-168, SEQ ID NO 36, TGAAGCAATCATGACTTCAAG (antisense dT*dG*dA*dA*dG*dC*dA*dA*dT*dC*dA*dT*dG*dA*dC*dT*dT*dC*dA*dA*dG) | 51.1 % of control | 46.9 % of control | ≤ 0.05 |  |  |  |  |
| ISIS 2687: P=S, human ELAM-1 5′-UTR 17-36, SEQ ID NO 37, TATAGGAGTTTTGATGTGAA (antisense dT*dA*dT*dA*dG*dG*dA*dG*dT*dT*dT*dT*dG*dA*dT*dG*dT*dG*dA*dA) | 91.1 % of control | 73.8 % of control |  | did not show significant activity |  |  |  |
| ISIS 2694: P=S, human ELAM-1 3′-UTR 2933-2953, SEQ ID NO 39, GACAATATACAAACCTTCCAT (antisense dG*dA*dC*dA*dA*dT*dA*dT*dA*dC*dA*dA*dA*dC*dC*dT*dT*dC*dC*dA*dT) | 72.0 % of control | 64.6 % of control |  |  |  |  |  |
| ISIS 3791: phosphorothioate, human VCAM-1 5′UTR 38-58, SEQ ID NO 61, CCTGGGAGGGTATTCAGCT (antisense dG*dC*dC*dT*dG*dG*dG*dA*dG*dG*dG*dT*dA*dT*dT*dC*dA*dG*dC*dT) |  |  |  |  | 92.6 % of control | 58.0 % of control |  |
| ISIS 3792: phosphorothioate, human VCAM-1 AUG 110-129, SEQ ID NO 63, GGCATTTTAAGTTGCTGTCG (DNA, all phosphorothioate, methylation of C not given here) |  |  |  |  | 68.7 % of control | 33.7 % of control | ≤ 0.05 |
| ISIS 3794: phosphorothioate, human VCAM-1 TERMIN. 2344-2362, SEQ ID NO 69, TGAACATATCAAGCATTAGC (DNA, all phosphorothioate, methylation of C not given here) |  |  |  |  | 75.3 % of control | 52.6 % of control |  |
| ISIS 4719: phosphorothioate, human ELAM-1 3′-UTR 2993-3012, SEQ ID NO 58, ACGTTTGGCCTCATGGAAGT (antisense dA*dC*dG*dT*dT*dT*dG*dG*dC*dC*dT*dC*dA*dT*dG*dG*dA*dA*dG*dT) | 36.8 % of control | 34.7 % of control | ≤ 0.05 |  |  |  |  |
| ISIS 4720: phosphorothioate, human ELAM-1 3′-UTR 3093-3112, SEQ ID NO 59, GGAATGCAAAGCACATCCAT (antisense dG*dG*dA*dA*dT*dG*dC*dA*dA*dA*dG*dC*dA*dC*dA*dT*dC*dC*dA*dT) | 63.5 % of control | 70.6 % of control |  |  |  |  |  |
| ISIS 4729: phosphorothioate, human ELAM-1 3′-UTR 2063-2082, SEQ ID NO 57, GGGCCAGAGACCCGAGGAGA (antisense dG*dG*dG*dC*dC*dA*dG*dA*dG*dA*dC*dC*dC*dG*dA*dG*dG*dA*dG*dA) | 49.4 % of control | 46.3 % of control | ≤ 0.05 |  |  |  |  |
| ISIS 4730: phosphorothioate, human ELAM-1 I/E 3′UTR 2006-2025, SEQ ID NO 56, TCCCCAGATGCACCTGTTT (antisense dT*dT*dC*dC*dC*dC*dA*dG*dA*dT*dG*dC*dA*dC*dC*dT*dG*dT*dT*dT) | 14.1 % of control | 2.3 % of control | ≤ 0.05 |  |  |  |  |
| ISIS 4732: phosphorothioate, human ELAM-1 Coding 1936-1955, SEQ ID NO 55, CTGATTCAAGGCTTTGGCAG (antisense dC*dT*dG*dA*dT*dT*dC*dA*dA*dG*dG*dC*dT*dT*dT*dG*dG*dC*dA*dG) | 68.5 % of control | 55.3 % of control |  |  |  |  |  |
| ISIS 4756: phosphorothioate, human ELAM-1 I/E 177-196, SEQ ID NO 54, CCAAAGTGAGAGCTGAGAGA (antisense dC*dC*dA*dA*dA*dG*dT*dG*dA*dG*dA*dG*dC*dT*dG*dA*dG*dA*dG*dA) | 53.9 % of control | 35.7 % of control | ≤ 0.05 |  |  |  |  |
| ISIS 4759: phosphorothioate, human ELAM-1 5′-UTR 64-83, SEQ ID NO 53, ACAGGATCTCTCAGGTGGGT (antisense dA*dC*dA*dG*dG*dA*dT*dC*dT*dC*dT*dC*dA*dG*dG*dT*dG*dG*dG*dT) | 30.0 % of control | 20.2 % of control | ≤ 0.05 |  |  |  |  |
| ISIS 4764: phosphorothioate, human ELAM-1 5′-UTR 1-19, SEQ ID NO 52, GAAGTCAGCCAAGAACAGCT (antisense dG*dA*dA*dG*dT*dC*dA*dG*dC*dC*dA*dA*dG*dA*dA*dC*dA*dG*dC*dT) | 70.2 % of control | 50.2 % of control | ≤ 0.05 |  |  |  |  |
